Assay [1] concerns A2780 (ovarian cell line). The experiment in a line: Cytotoxicity assay (propidium iodide assay), A2780. Conditions: Homo sapiens, A2780 cells, 48 h treatment. It is filed as cell-based. As to the method:
(§1) The assay was designed as in the reference, Anticancer Drugs, 2002, 13, 1-8, the disclosure of which is incorporated by reference for the teaching of the assay.
(§2) Cells from cell lines A2780 (ovarian cell line) and PC3 (prostate cell line) (both from ATCC) were seeded at a density of 3000 cells/well in a white opaque 96-well plate. Following incubation at 37° C./5% CO2 for a period of 18-24 h, the cells were treated with various concentrations (stock solution was prepared in DMSO and subsequent dilutions were made in media as per ATCC guidelines) of the test compounds for a period of 48 h. At the end of treatment, the culture medium was discarded, the cells were washed with 1×PBS and 200 μl of 7 μg/ml propidium iodide was added to each well. The plates were frozen at −70° C. overnight. For analysis, the plates were warmed to RT, allowed to thaw and were read in PoleStar fluorimeter with the fluorescence setting. The percentage of viable cells in the non-treated set of wells was considered to be 100 and the percentage viability following treatment was calculated accordingly. IC50 values were calculated from graphs plotted using these percentages.

In another assay the test system is PC3 (prostate cell line). The experiment in a line: Cytotoxicity assay (propidium iodide assay), PC3. It is filed as cell-based. Conditions: Homo sapiens, PC-3, PC3 cells, 48 h treatment. On the procedure:
as §1, §2

Where only a bound is given, the exact number is not on record here.

Usually inhibition stands for the share of the control response that was lost under treatment. Read a high inhibition as strong suppression. Regarding `COc1ncc(-c2ccc3ncc4c(c3c2)n(-c2ccc(C(C)(C)C#N)cc2)c(=NC#N)n4C)cc1NS(C)(=O)=O` [Example 127, N-(5-(2-(cyanoimino)-1-(4-(2-cyanopropan-2-yl)phenyl)-3-methyl-2,3-dihydro-1H-imidazo[4,5-c]quinolin-8-yl)-2-methoxypyridin-3-yl)methanesulfonamide], the results for the inhibition at 1 µM (in assay [1]; with PC3 (prostate cell line)) were ≥ 70% and 30 to 70%, respectively.
As to `COc1ccc(-n2c(=NC#N)n(C)c3cnc4ccc(-c5ccccc5C)cc4c32)cn1` [Example 34, N-(1-(6-methoxypyridin-3-yl)-3-methyl-8-o-tolyl-1H-imidazo[4,5-c]quinolin-2(3H)-ylidene)cyanamide], the inhibition at 1 µM (in assay [1]; in the assay on PC3 (prostate cell line)) was < 30% throughout.
The IC50 is the concentration at which inhibition is half-maximal. On to `Cn1c(=NC#N)n(-c2ccc3ncccc3c2)c2c3cc(-c4cnc(N)c(C(F)(F)F)c4)ccc3ncc21` [Example 11, N-(8-(6-amino-5-(trifluoromethyl)pyridin-3-yl)-3-methyl-1-(quinolin-6-yl)-1H-imidazo[4,5-c]quinolin-2(3H)-ylidene)cyanamide], for which the IC50 (in assay [1]; in the assay with PC3 (prostate cell line)) was ≤ 0.5 µM each time.
`COc1ccc(-n2c(=NC#N)n(C)c3cnc4ccc(-c5ccc(O)cc5)cc4c32)cn1` [Example 46, N-(8-(4-hydroxyphenyl)-1-(6-methoxypyridin-3-yl)-3-methyl-1H-imidazo[4,5-c]quinolin-2(3H)-ylidene)cyanamide]: the inhibition at 1 µM in assay [1] was ≥ 70%; with PC3 (prostate cell line), 30 to 70%.
The corresponding values for `COc1ccccc1-c1ccc2ncc3c(c2c1)n(-c1ccc(C(C)(C)C#N)nc1)c(=NC#N)n3C` [Example 53, N-(1-(6-(2-cyanopropan-2-yl)pyridin-3-yl)-8-(2-methoxyphenyl)-3-methyl-1H-imidazo[4,5-c]quinolin-2(3H)-ylidene)cyanamide] are 30 to 70% and < 30%.
Regarding `Cn1c(=NC#N)n(-c2ccc(C(C)(C)C#N)nc2)c2c3cc(-c4cncc(CNC(=O)OC(C)(C)C)c4)ccc3ncc21` [Example 71, tert-butyl (5-(2-(cyanoimino)-1-(6-(2-cyanopropan-2-yl)pyridin-3-yl)-3-methyl-2,3-dihydro-1H-imidazo[4,5-c]quinolin-8-yl)pyridin-3-yl)methylcarbamate], the inhibition at 1 µM (in assay [1]; in the assay with PC3 (prostate cell line)) was < 30% throughout.
Turning to `COc1cc(OC)cc(-n2c(=NC#N)n(C)c3cnc4ccc(-c5cnc(N)c(C(F)(F)F)c5)cc4c32)c1` [Example 97, N-(8-(6-amino-5-(trifluoromethyl)pyridin-3-yl)-1-(3,5-dimethoxyphenyl)-3-methyl-1H-imidazo[4,5-c]quinolin-2(3H)-ylidene)cyanamide], the inhibition at 1 µM (in assay [1]; in the assay on PC3 (prostate cell line)) was ≥ 70% each time.
As to `CC(=O)N(C(C)=O)c1ncc(-c2ccc3ncc4c(c3c2)n(-c2ccc(C(C)(C)C#N)nc2)c(=NC#N)n4C)cc1C(F)(F)F` [Example 132, N-acetyl-N-(5-(2-(cyanoimino)-1-(6-(2-cyanopropan-2-yl)pyridin-3-yl)-3-methyl-2,3-dihydro-1H-imidazo[4,5-c]quinolin-8-yl)-3-(trifluoromethyl)pyridin-2-yl)acetamide], the inhibition at 1 µM (in assay [1]; with PC3 (prostate cell line)) was < 30% throughout.
Regarding `COC(=O)c1cc(-c2ccc3ncc4c(c3c2)n(-c2ccc(C(C)(C)C#N)nc2)c(=NC#N)n4C)cnc1N` [Example 137, Methyl 2-amino-5-(2-(cyanoimino)-1-(6-(2-cyanopropan-2-yl)pyridin-3-yl)-3-methyl-2,3-dihydro-1H-imidazo[4,5-c]quinolin-8-yl)nicotinate], the IC50 (in assay [1]; with PC3 (prostate cell line)) was ≤ 0.5 µM throughout.
On to `COc1ccc(-n2c(=NC#N)n(C)c3cnc4ccc(-c5cccc(C)c5)cc4c32)cn1` [Example 29, N-(1-(6-methoxypyridin-3-yl)-3-methyl-8-m-tolyl-1H-imidazo[4,5-c]quinolin-2(3H)-ylidene)cyanamide], for which the inhibition at 1 µM was 30 to 70% in assay [1] and < 30% in the assay with PC3 (prostate cell line).
As for `Cn1c(=NC#N)n(-c2ccc(C(C)(C)C#N)nc2)c2c3cc(-c4ccncc4)ccc3ncc21` [Example 81, N-(1-(6-(2-cyanopropan-2-yl)pyridin-3-yl)-3-methyl-8-(pyridin-4-yl)-1H-imidazo[4,5-c]quinolin-2(3H)-ylidene)cyanamide], the IC50 (in assay [1]; in the assay on PC3 (prostate cell line)) was ≤ 0.5 µM throughout.
For `COc1cc(-c2ccc3ncc4c(c3c2)n(-c2ccc(C(C)(C)C#N)cc2)c(=NC#N)n4C)cc(OC)c1OC` [Example 88, N-(1-(4-(2-cyanopropan-2-yl)phenyl)-3-methyl-8-(3,4,5-trimethoxyphenyl)-1H-imidazo[4,5-c]quinolin-2(3H)-ylidene)cyanamide], the inhibition at 1 µM in assay [1] was ≥ 70%; in the assay on PC3 (prostate cell line), 30 to 70%.
As for `Cn1c(=NC#N)n(-c2ccc(C(C)(C)C#N)nc2)c2c3cc(-c4ccc5c(c4)OCO5)ccc3ncc21` [Example 54, N-(8-(benzo[d][1,3]dioxol-5-yl)-1-(6-(2-cyanopropan-2-yl)pyridin-3-yl)-3-methyl-1H-imidazo[4,5-c]quinolin-2(3H)-ylidene)cyanamide], the inhibition at 1 µM in assay [1] was 30 to 70%; with PC3 (prostate cell line), < 30%.
The corresponding values for `Cn1c(=NC#N)n(-c2ccc(C(C)(C)C#N)cc2)c2c3cc(-c4cc(C(F)(F)F)ccc4F)ccc3ncc21` [Example 87, N-(1-(4-(2-cyanopropan-2-yl)phenyl)-8-(2-fluoro-5-(trifluoromethyl)phenyl)-3-methyl-1H-imidazo[4,5-c]quinolin-2(3H)-ylidene)cyanamide] are 30 to 70% and < 30%.
On to `Cn1c(=NC#N)n(-c2ccc(C(C)(C)C#N)nc2)c2c3cc(-c4cc(F)cc(F)c4)ccc3ncc21` [Example 63, N-(1-(6-(2-cyanopropan-2-yl)pyridin-3-yl)-8-(3,5-difluorophenyl)-3-methyl-1H-imidazo[4,5-c]quinolin-2(3H)-ylidene)cyanamide], for which the inhibition at 1 µM in assay [1] was 30 to 70%; with PC3 (prostate cell line) it was < 30%.
Consider `Cn1c(=NC#N)n(-c2ccc(C(C)(C)C#N)nc2)c2c3cc(-c4cccc(C(F)(F)F)c4)ccc3ncc21` [Example 69, N-(1-(6-(2-cyanopropan-2-yl)pyridin-3-yl)-3-methyl-8-(3-(trifluoromethyl)phenyl)-1H-imidazo[4,5-c]quinolin-2(3H)-ylidene)cyanamide], for which the values for the inhibition at 1 µM (in assay [1]; in the assay with PC3 (prostate cell line)) were ≥ 70% and 30 to 70%, respectively.
With `COc1ccc(-n2c(=NC#N)n(C)c3cnc4ccc(-c5cnc6ccccc6c5)cc4c32)c(OC)c1` [Example 100, N-(1-(2,4-dimethoxyphenyl)-3-methyl-8-(quinolin-3-yl)-1H-imidazo[4,5-c]quinolin-2(3H)-ylidene)cyanamide], the IC50 (in assay [1]; in the assay on PC3 (prostate cell line)) was ≤ 0.5 µM in each case.
With `Cn1c(=NC#N)n(-c2ccc(C(C)(C)C#N)nc2)c2c3cc(-c4ccc5ccccc5c4)ccc3ncc21` [Example 62, N-(1-(6-(2-cyanopropan-2-yl)pyridin-3-yl)-3-methyl-8-(naphthalen-2-yl)-1H-imidazo[4,5-c]quinolin-2(3H)-ylidene)cyanamide], the inhibition at 1 µM (in assay [1]; in the assay on PC3 (prostate cell line)) was 30 to 70% each time.
For the molecule `CCCC(CCC)C(=O)Nc1ncc(-c2ccc3ncc4c(c3c2)n(-c2ccc(C(C)(C)C#N)nc2)c(=NC#N)n4C)cc1C(F)(F)F` [Example 136, N-(5-(2-(cyanoimino)-1-(6-(2-cyanopropan-2-yl)pyridin-3-yl)-3-methyl-2,3-dihydro-1H-imidazo[4,5-c]quinolin-8-yl)-3-(trifluoromethyl)pyridin-2-yl)-2-propylpentanamide], the inhibition at 1 µM was ≥ 70% in assay [1] and 30 to 70% with PC3 (prostate cell line).
In the same order, the values of `CC(=O)Nc1cc(C)c(-c2ccc3ncc4c(c3c2)n(-c2ccc(C(C)(C)C#N)nc2)c(=NC#N)n4C)cn1` [Example 128, N-(5-(2-(cyanoimino)-1-(6-(2-cyanopropan-2-yl)pyridin-3-yl)-3-methyl-2,3-dihydro-1H-imidazo[4,5-c]quinolin-8-yl)-4-methylpyridin-2-yl)acetamide] are 30 to 70% and < 30%.
In the same order, the values of `COc1ccc(-n2c(=NC#N)n(C)c3cnc4ccc(-c5cnc(N)c(C(F)(F)F)c5)cc4c32)c(OC)n1` [Example 98, N-(8-(6-amino-5-(trifluoromethyl)pyridin-3-yl)-1-(2,6-dimethoxypyridin-3-yl)-3-methyl-1H-imidazo[4,5-c]quinolin-2(3H)-ylidene)cyanamide] are ≥ 70% and ≥ 70%.
In the case of `Cn1c(=NC#N)n(-c2ccc(OC(F)(F)F)cc2)c2c3cc(-c4cnc(N)c(C(F)(F)F)c4)ccc3ncc21` [Example 105, N-(8-(6-amino-5-(trifluoromethyl)pyridin-3-yl)-3-methyl-1-(4-(trifluoromethoxy)phenyl)-1H-imidazo[4,5-c]quinolin-2(3H)-ylidene)cyanamide], the IC50 (in assay [1]; in the assay with PC3 (prostate cell line)) was ≤ 0.5 µM in each case.
On to `COc1cc(OC)cc(-n2c(=NC#N)n(C)c3cnc4ccc(-c5cccnc5)cc4c32)c1` [Example 102, N-(1-(3,5-dimethoxyphenyl)-3-methyl-8-(pyridin-3-yl)-1H-imidazo[4,5-c]quinolin-2(3H)-ylidene)cyanamide], for which the inhibition at 1 µM in assay [1] was ≥ 70%; with PC3 (prostate cell line), < 30%.

The values above are taken from patent publication US9062046B2, “Substituted imidazoquinoline derivatives as kinase inhibitors” (Piramal Enterprises Limited, priority 2011, dated 2015).
